# Test results: US6638524B2, “Cosmetics, foods and beverages supplemented with purified strictinin” (National Agricultural Research Organization, priority 2000, dated 2003)
# Legend:
# [1] = system: mast cells in abdominal cavity of rat; conditions: literature report; cited from earlier work
# [2] = system: CεGT inducible expression by IL-4 in human B cell line DND 39; experiment: expression of IgE heavy chain germline transcript (CεGT) induced by IL-4 in human B cell line DND 39 (IgE class switch suppression); assay type: cell-based; conditions: strictinin 1, 10 and 25 μM added at the same time with IL-4, DND 39, FIG. 3
# Experimental: (§1) Each of Fr. 1 to 5 in Experimental Example 1 was evaluated for its antiallergic action in vitro by a method for the expression of a transcript of an IgE heavy chain germline transcript which was to investigate the suppression of IgE production in human B cells (IgE class switch suppression). This is a method utilizing the fact that, when human B cells are stimulated by IL-4 to induce the production of IgE, a transcription is started from the upstream intron corresponding to an ε region (Cε) in the constant domain gene of the Ig gene whereupon a transcript (CεGT: germline transcript) is expressed and, after that, a class switch of IgE is resulted by a DNA recombination. CεGT is an RNA which is always expressed before the IgE production is induced and the expressed amount of CεGT is proportional to the class switch amount of the IgE gene. Therefore, when the degree of expressed amount of CεGT is detected, it is possible to estimate the IgE class switch amount.
# A method for the expression of an IgE heavy chain germline transcript was carried out according to the following procedures. […]
# Then, a cDNA library was prepared according to the following procedure. First, concentration of the extracted total RNA was measured by an absorptiometer, a portion of 10 μg was taken in a 0.6 mL tube and water was added thereto to make 11.8 μL. […]
# [3] = system: CεGT inducible expression by IL-4 in human peripheral blood lymphocytes; experiment: expression of IgE heavy chain germline transcript (CεGT) induced by IL-4 in human peripheral blood lymphocytes; assay type: cell-based; conditions: strictinin 25 μM added at the same time with IL-4, human peripheral blood lymphocytes, FIG. 4
# Experimental: as §1
# Human peripheral blood normal cells (monocytes; separated from the blood which was collected from a healthy human volunteer) was used instead of the human B cell line DND 39 of Experimental Example 3 and an antiallergic activity was measured by the same way as in the method for the expression of an IgE heavy chain germline transcript mentioned in Experimental Example 2. […]
SMILES,liberation of histamine from mast cells [1],IgE class switch by addition of IL-4 (CεGT inducible expression) [2],IgE class switch by addition of IL-4 (CεGT inducible expression) [3]
O=C(O[C@@H]1Cc2c(O)cc(O)cc2O[C@@H]1c1ccc(O)c(O)c1)c1cc(O)c(O)c(O)c1 [epicatechin gallate],suppress,–,–
O=C(O[C@@H]1Cc2c(O)cc(O)cc2O[C@@H]1c1cc(O)c(O)c(O)c1)c1cc(O)c(O)c(O)c1 [epigallocatechin gallate],suppress,–,–
O=C(O[C@@H]1O[C@@H]2COC(=O)c3cc(O)c(O)c(O)c3-c3c(cc(O)c(O)c3O)C(=O)O[C@H]2[C@H](O)[C@H]1O)c1cc(O)c(O)c(O)c1 [strictinin],–,strongly suppressed,strongly suppressed
